This passage reports IC50 results from patent US9012489B2, “Phenyl-3-aza-bicyclo[3.1.0]hex-3-yl-methanones and the use thereof as medicament” (Boehringer Ingelheim International GmbH, priority 2011, dated 2015).

Each structure is given as a SMILES string.

The target of this assay is T1, GlyT1 transporter (Homo sapiens, UniProt P48067).
T1 construct: endogenously expressing the GlyT1 transporter; host or cells: SK-N-MC human neuroblastoma cells
T1 sequence (P48067 1-706): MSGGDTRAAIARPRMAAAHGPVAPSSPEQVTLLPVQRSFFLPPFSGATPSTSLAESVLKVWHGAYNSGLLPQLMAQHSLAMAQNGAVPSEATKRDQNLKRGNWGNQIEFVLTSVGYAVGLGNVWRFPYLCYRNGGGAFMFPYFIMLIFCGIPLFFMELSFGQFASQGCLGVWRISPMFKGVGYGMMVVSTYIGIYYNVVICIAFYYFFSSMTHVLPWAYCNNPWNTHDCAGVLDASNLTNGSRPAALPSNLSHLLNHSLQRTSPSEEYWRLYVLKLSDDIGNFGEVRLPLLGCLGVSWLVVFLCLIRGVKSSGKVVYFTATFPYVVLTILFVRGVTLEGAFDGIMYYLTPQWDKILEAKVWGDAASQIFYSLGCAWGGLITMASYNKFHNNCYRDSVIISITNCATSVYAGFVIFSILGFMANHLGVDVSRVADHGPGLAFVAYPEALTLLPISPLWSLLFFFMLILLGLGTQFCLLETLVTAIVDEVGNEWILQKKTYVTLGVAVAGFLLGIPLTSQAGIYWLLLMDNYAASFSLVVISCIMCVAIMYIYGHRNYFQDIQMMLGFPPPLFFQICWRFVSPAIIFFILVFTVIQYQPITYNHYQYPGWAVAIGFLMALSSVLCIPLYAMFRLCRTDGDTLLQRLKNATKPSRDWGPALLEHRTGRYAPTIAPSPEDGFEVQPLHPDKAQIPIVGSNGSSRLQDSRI
In words: GlyT1 assay: 3H-glycine uptake into SK-N-MC cells (Cytostar-T format). Particulars: glycine uptake in human SK-N-MC cells endogenously expressing GlyT1; 500 nM glycine, 1% DMSO, signal recorded over 60 min. The assay is classed as cell-based. An outline of the steps: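 Endogenous GlyT1 in human SK-N-MC cells, confluent after 16-18 h, in HBSS with 5 mM alanine. Compounds preincubated about 5-10 min, then 500 nM glycine (half ³H) added, 1% DMSO. Scintillation-proximity uptake recorded kinetically over 60 min; IC50 from linear-range slopes over 8 concentrations, nonspecific uptake defined with 10 μM RG-1678.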
In the case of `CS(=O)(=O)c1ccc(O[C@@H]2CCOC2)c(C(=O)N2CC3CC3(c3noc(C(F)(F)F)n3)C2)c1` (mixture of isomers) [Example 138, [5-Methanesulfonyl-2-(tetrahydro-furan-3-yloxy)-phenyl]-[1-(5-trifluoromethyl-[1,2,4]oxadiazol-3-yl)-3-aza-bicyclo[3.1.0]hex-3-yl]-methanone], the midpoint of inhibition, the IC50, lay at 261 nM.

For the compound `CS(=O)(=O)c1ccc(-n2ccc(C(F)(F)F)n2)c(C(=O)N2CC3CC3(c3noc(C(F)(F)F)n3)C2)c1` (racemic) [Example 141, [5-Methanesulfonyl-2-(3-trifluoromethyl-pyrazol-1-yl)-phenyl]-[1-(5-trifluoromethyl-[1,2,4]oxadiazol-3-yl)-3-aza-bicyclo[3.1.0]hex-3-yl]-methanone], the IC50 was found to be 764 nM. For `C[C@@H](Oc1ccc(S(C)(=O)=O)cc1C(=O)N1CC2CC2(c2nc(C3CC3)no2)C1)C(F)(F)F` (mixture of isomers) [Example 145, [1-(3-Cyclopropyl-[1,2,4]oxadiazol-5-yl)-3-aza-bicyclo[3.1.0]hex-3-yl]-[5-methanesulfonyl-2-(2,2,2-trifluoro-1-methyl-ethoxy)-phenyl]-methanone], inhibition was half-maximal at 7 nM (IC50). Then `C[C@@H](Oc1ccc(S(C)(=O)=O)cc1C(=O)N1CC2CC2(c2nnc(C3CC3)o2)C1)C(F)(F)F` (mixture of isomers) [Example 146, [1-(5-Cyclopropyl-[1,3,4]oxadiazol-2-yl)-3-aza-bicyclo[3.1.0]hex-3-yl]-[5-methanesulfonyl-2-(2,2,2-trifluoro-1-methyl-ethoxy)-phenyl]-methanone], with 9 nM; and `C[C@H](Oc1ccc(S(C)(=O)=O)cc1C(=O)N1CC2CC2(c2nnc(C3CC3)o2)C1)C(F)(F)F` (mixture of isomers) [Example 147, [1-(5-Cyclopropyl-[1,3,4]oxadiazol-2-yl)-3-aza-bicyclo[3.1.0]hex-3-yl]-[5-methanesulfonyl-2-(2,2,2-trifluoro-1-methyl-ethoxy)-phenyl]-methanone], with 18 nM; and `C[C@@H](Oc1ccc(S(C)(=O)=O)cc1C(=O)N1CC2CC2(c2nnc(C3(C(F)(F)F)CC3)o2)C1)C(F)(F)F` (mixture of isomers) [Example 148, [5-Methanesulfonyl-2-(2,2,2-trifluoro-1-methyl-ethoxy)-phenyl]-{1-[5-(1-trifluoromethyl-cyclopropyl)-[1,3,4]oxadiazol-2-yl]-3-aza-bicyclo[3.1.0]hex-3-yl}-methanone], with 9 nM. Then `C[C@H](Oc1ccc(S(C)(=O)=O)cc1C(=O)N1CC2CC2(c2nnc(C3(C(F)(F)F)CC3)o2)C1)C(F)(F)F` (mixture of isomers) [Example 151, [5-Methanesulfonyl-2-(2,2,2-trifluoro-1-methyl-ethoxy)-phenyl]-{1-[5-(1-trifluoromethyl-cyclopropyl)-[1,3,4]oxadiazol-2-yl]-3-aza-bicyclo[3.1.0]hex-3-yl}-methanone], with 10 nM.

The compound `CC(C)Oc1ccc(S(C)(=O)=O)cc1C(=O)N1CC2CC2(c2nc(C3(C(F)(F)F)CC3)no2)C1` (racemic) [Example 154, (2-Isopropoxy-5-methanesulfonyl-phenyl)-{1-[3-(1-trifluoromethyl-cyclopropyl)-[1,2,4]oxadiazol-5-yl]-3-aza-bicyclo[3.1.0]hex-3-yl}-methanone] had an IC50 of 72 nM. Then `C[C@H](Oc1ccc(S(C)(=O)=O)cc1C(=O)N1CC2CC2(c2nc(C3(C(F)(F)F)CC3)no2)C1)C(F)(F)F` (mixture of isomers) [Example 155, [5-Methanesulfonyl-2-(2,2,2-trifluoro-1-methyl-ethoxy)-phenyl]-{1-[3-(1-trifluoromethyl-cyclopropyl)-[1,2,4]oxadiazol-5-yl]-3-aza-bicyclo[3.1.0]hex-3-yl}-methanone], with 36 nM; and `C[C@@H](Oc1ccc(S(C)(=O)=O)cc1C(=O)N1CC2CC2(c2nc(C3(C(F)(F)F)CC3)no2)C1)C(F)(F)F` (mixture of isomers) [Example 156, [5-Methanesulfonyl-2-(2,2,2-trifluoro-1-methyl-ethoxy)-phenyl]-{1-[3-(1-trifluoromethyl-cyclopropyl)-[1,2,4]oxadiazol-5-yl]-3-aza-bicyclo[3.1.0]hex-3-yl}-methanone], with 11 nM; and `C[C@H](Oc1ccc(S(C)(=O)=O)cc1C(=O)N1CC2(C)CC2(c2noc(C(F)(F)F)n2)C1)C(F)(F)F` (mixture of isomers) [Example 157, [5-Methanesulfonyl-2-(2,2,2-trifluoro-1-methyl-ethoxy)-phenyl]-[1-methyl-5-(5-trifluoromethyl-[1,2,4]oxadiazol-3-yl)-3-aza-bicyclo[3.1.0]hex-3-yl]-methanone], with 147 nM.

With `Cc1c(C23CC2CN(C(=O)c2cc(S(C)(=O)=O)ccc2O[C@H](C)C(F)(F)F)C3)noc1C(F)(F)F` (mixture of isomers) [Example 160], inhibition was half-maximal at 8 nM (IC50). Take `Cc1c(C23CC2CN(C(=O)c2cc(S(C)(=O)=O)ccc2O[C@@H](C)C(F)(F)F)C3)noc1C(F)(F)F` (mixture of isomers) [Example 163]: inhibition was half-maximal at 16 nM (IC50). As for `C[C@H](Oc1ccc(S(C)(=O)=O)cc1C(=O)N1CC2CC2(c2noc(C(F)(F)F)n2)C1)C(F)(F)F` (single isomer, unassigned) [Example 2, [5-Methanesulfonyl-2-(2,2,2-trifluoro-1-methyl-ethoxy)-phenyl]-[1-(5-trifluoromethyl-[1,2,4]oxadiazol-3-yl)-3-aza-bicyclo[3.1.0]hex-3-yl]-methanone], the IC50 was 18 nM. Then `C[C@H](Oc1ccc(S(C)(=O)=O)cc1C(=O)N1CC2CC2(c2noc(C(F)(F)F)n2)C1)C(F)(F)F` (single isomer, unassigned) [Example 3, [5-Methanesulfonyl-2-(2,2,2-trifluoro-1-methyl-ethoxy)-phenyl]-[1-(5-trifluoromethyl-[1,2,4]oxadiazol-3-yl)-3-aza-bicyclo[3.1.0]hex-3-yl]-methanone], with 1020 nM. Turning to `C[C@@H](Oc1ccc(S(C)(=O)=O)cc1C(=O)N1CC2CC2(c2noc(C(F)(F)F)n2)C1)C(F)(F)F` (single isomer, unassigned) [Example 4, [5-Methanesulfonyl-2-(2,2,2-trifluoro-1-methyl-ethoxy)-phenyl]-[1-(5-trifluoromethyl-[1,2,4]oxadiazol-3-yl)-3-aza-bicyclo[3.1.0]hex-3-yl]-methanone], inhibition was half-maximal at 9 nM (IC50). Compound `C[C@@H](Oc1ccc(S(C)(=O)=O)cc1C(=O)N1CC2CC2(c2noc(C(F)(F)F)n2)C1)C(F)(F)F` (single isomer, unassigned) [Example 5, [5-Methanesulfonyl-2-(2,2,2-trifluoro-1-methyl-ethoxy)-phenyl]-[1-(5-trifluoromethyl-[1,2,4]oxadiazol-3-yl)-3-aza-bicyclo[3.1.0]hex-3-yl]-methanone] had an IC50 of 1380 nM.

Compound `Cc1nc(C23CC2CN(C(=O)c2cc(S(C)(=O)=O)ccc2O[C@@H](C)C(F)(F)F)C3)no1` (single isomer, unassigned) [Example 7, [5-Methanesulfonyl-2-(2,2,2-trifluoro-1-methyl-ethoxy)-phenyl]-[1-(5-methyl-[1,2,4]oxadiazol-3-yl)-3-aza-bicyclo[3.1.0]hex-3-yl]-methanone] came in with an IC50 of 4 nM. Consider `Cc1nc(C23CC2CN(C(=O)c2cc(S(C)(=O)=O)ccc2O[C@@H](C)C(F)(F)F)C3)no1` (single isomer, unassigned) [Example 8, [5-Methanesulfonyl-2-(2,2,2-trifluoro-1-methyl-ethoxy)-phenyl]-[1-(5-methyl-[1,2,4]oxadiazol-3-yl)-3-aza-bicyclo[3.1.0]hex-3-yl]-methanone], for which the concentration for half-maximal inhibition (IC50) stood at 474 nM.

`C[C@H](Oc1ccc(S(C)(=O)=O)cc1C(=O)N1CC2CC2(c2noc(C3CC3)n2)C1)C(F)(F)F` (single isomer, unassigned) [Example 10, [1-(5-Cyclopropyl-[1,2,4]oxadiazol-3-yl)-3-aza-bicyclo[3.1.0]hex-3-yl]-[5-methanesulfonyl-2-(2,2,2-trifluoro-1-methyl-ethoxy)-phenyl]-methanone] came in with an IC50 of 42 nM.

For the compound `C[C@H](Oc1ccc(S(C)(=O)=O)cc1C(=O)N1CC2CC2(c2noc(C3CC3)n2)C1)C(F)(F)F` (single isomer, unassigned) [Example 11, [1-(5-Cyclopropyl-[1,2,4]oxadiazol-3-yl)-3-aza-bicyclo[3.1.0]hex-3-yl]-[5-methanesulfonyl-2-(2,2,2-trifluoro-1-methyl-ethoxy)-phenyl]-methanone], the IC50 amounted to 175 nM. Then `C[C@H](Oc1ccc(S(C)(=O)=O)cc1C(=O)N1CC2CC2(c2nccc(C(F)(F)F)n2)C1)C(F)(F)F` (single isomer, unassigned) [Example 16, [5-Methanesulfonyl-2-(2,2,2-trifluoro-1-methyl-ethoxy)-phenyl]-[1-(4-trifluoromethyl-pyrimidin-2-yl)-3-aza-bicyclo[3.1.0]hex-3-yl]-methanone], with 10 nM.

For orientation: IC50 means the concentration at which inhibition is half-maximal. Low readings indicate greater potency, high ones weaker potency.
